Measurements: PubChem BioAssay (NCI)
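Five concentrations, 48 hours, 96-well plates. GI50: concentration for 50% inhibition of growth. TGI marks complete inhibition of growth.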

Legend:
Test in all cases: inhibition of tumour cell growth, NCI panel, 48 h
786-0 renal = system: 786-0 renal
A498 renal = system: A498 renal
A549 NSCLC = system: A549 NSCLC
ACHN renal = system: ACHN renal
BT-549 breast = system: BT-549 breast
CAKI-1 renal = system: CAKI-1 renal
CCRF-CEM leukemia = system: CCRF-CEM leukemia
COLO 205 colon = system: COLO 205 colon
DU-145 prostate = system: DU-145 prostate
EKVX NSCLC = system: EKVX NSCLC
HCC-2998 colon = system: HCC-2998 colon
HCT-116 colon = system: HCT-116 colon
HCT-15 colon = system: HCT-15 colon
HL-60(TB) leukemia = system: HL-60(TB) leukemia
HOP-62 NSCLC = system: HOP-62 NSCLC
HOP-92 NSCLC = system: HOP-92 NSCLC
HS 578T breast = system: HS 578T breast
HT29 colon = system: HT29 colon
IGROV1 ovarian = system: IGROV1 ovarian
K-562 leukemia = system: K-562 leukemia
KM12 colon = system: KM12 colon
LOX IMVI melanoma = system: LOX IMVI melanoma
M14 melanoma = system: M14 melanoma
MALME-3M melanoma = system: MALME-3M melanoma
MCF7 breast = system: MCF7 breast
MDA-MB-231 breast = system: MDA-MB-231 breast
MDA-MB-435 = system: MDA-MB-435
MOLT-4 leukemia = system: MOLT-4 leukemia
NCI-H226 lung = system: NCI-H226 lung

## COc1ccc(C=Nc2c(C(=O)Nc3cccc(Cl)c3C)sc3nc(C)c(C(=O)/C=C/c4ccc(OC)cc4)cc23)cc1
786-0 renal
  GI50: 656 nM
  TGI: > 30000 nM
A498 renal
  GI50: 196 nM
  TGI: 2490 nM
A549 NSCLC
  GI50: 1610 nM
  TGI: > 50000 nM
ACHN renal
  GI50: 425 nM
  TGI: > 50000 nM
BT-549 breast
  GI50: 787 nM
  TGI: > 38500 nM
CAKI-1 renal
  GI50: 652 nM
  TGI: > 50000 nM
CCRF-CEM leukemia
  GI50: 819 nM
  TGI: > 50000 nM
COLO 205 colon
  GI50: 1820 nM
  TGI: 23800 nM
DU-145 prostate
  GI50: 638 nM
  TGI: 14600 nM
EKVX NSCLC
  GI50: 2240 nM
  TGI: > 50000 nM
HCC-2998 colon
  GI50: 9890 nM
  TGI: > 50000 nM
HCT-116 colon
  GI50: 362 nM
  TGI: > 50000 nM
HCT-15 colon
  GI50: 382 nM
  TGI: > 50000 nM
HL-60(TB) leukemia
  GI50: 1270 nM
  TGI: > 22000 nM
HOP-62 NSCLC
  GI50: 1050 nM
  TGI: > 27500 nM
HOP-92 NSCLC
  GI50: 590 nM
  TGI: 7120 nM
HS 578T breast
  GI50: 458 nM
  TGI: 7670 nM
HT29 colon
  GI50: 306 nM
  TGI: > 50000 nM
IGROV1 ovarian
  GI50: 1320 nM
  TGI: > 50000 nM
K-562 leukemia
  GI50: 259 nM
  TGI: > 50000 nM
KM12 colon
  GI50: 894 nM
  TGI: > 43900 nM
LOX IMVI melanoma
  GI50: 666 nM
  TGI: > 50000 nM
M14 melanoma
  GI50: 201 nM
  TGI: 1570 nM
MALME-3M melanoma
  GI50: 599 nM
  TGI: > 50000 nM
MCF7 breast
  GI50: 293 nM
  TGI: > 50000 nM
MDA-MB-231 breast
  GI50: 383 nM
  TGI: 2260 nM
MDA-MB-435
  GI50: 103 nM
  TGI: 227 nM
MOLT-4 leukemia
  GI50: 3680 nM
  TGI: > 50000 nM
NCI-H226 lung
  GI50: 621 nM
